Results taken from patent US3998963A, “Tertiary butyl substituted carbamoyl oxime pesticides” (priority 1975, dated 1976).
Values after ≈ are worked out from the molar mass of the structure shown.

What was measured:
Assay type in all cases: in vivo
[1] = system: houseflies (Musca domestica, L.); assay: Fly Immersion Test; conditions: for LC50: Musca domestica, immersion (contact), 24 hours, read-out: Imm LD50, Housefly; for contact vs stomach poison, house fly (in words): immersion vs bait; for (Imm/Bait), Housefly: ratio immersion/bait LD50
Description: (§1) Suspensions of the test compouns were prepared by dissolving one gram of compound in 50 milliliters of acetone in which had been dissolved 0.1 gram (10 percent of the weight of compound) of an alkylphenoxy polyethoxyethanol surfactant, as an emulsifying or dispersing agent. The resulting solution was mixed into 150 milliliters of water to give roughly 200 milliliters of a suspension containing the compound in finely divided form. The thus-prepared stock suspension contained 0.5 percent by weight of compound. The test concentrations in parts per million by weight employed in the tests described hereinbelow were obtained by appropriate dilutions of the stock suspension with water. The test procedures were as follows:
The test organisms used were 4 to 6 day old adult houseflies (Musca domestica, L.) reared under controlled conditions of 80° + 5° F. and 50 + 5 percent relative humidity. The adult flies were immobilized by anesthetizing with CO2. Twenty-five immobilized individuals (males and females) were then used for the test of each test compound.
Twenty-five randomly selected adult flies were thoroughly wetted in a formulated mixture of the test chemical (50 ml) by pouring the insects and formulation from one beaker to another six times. Excess liquid was removed by transferring the insects into a standard food strainer (5-inch diameter) which was then blotted with a paper towel. The treated flies were transferred to clean food strainer which was inverted over a paper cup containing a wad of cotton saturated with a 10 percent aqueous sugar solution provided as food for surviving insects. An equivalent amount of a water solution containing acetone and emulsifier in the same concentrations as the insecticidal mixture but without the candidate insecticide was applied to other flies in the same manner. These insects serve as controls for the experiment.
The surviving caged flies were allowed to feed on the sugar water for a period of 24 hours. Room temperature and humidity are 80° + 5° F. and 50 + 5 percent relative humidity, respectively. At the end of the holding period flies which show no sign of movement upon stimulation were considered dead.
(§2) In Table 1 are presented insect and rat toxicity data (bait tests) on a comparative basis of the compounds described above. […] Rat toxicity is also more meaningfully compared on the basis of molar weight LD50 values. The relative efficacy of the parent compounds as compared to the previously known derivatives and as compared to the new compounds of this invention is also shown in Table 1. The ratio of efficacy as contact poisons (immersion/bait) of the compounds tested against Armyworm and House Fly is presented in Table 2 along with the results of the phytotoxicity tests of the compounds on bean, corn, tomato and cotton.

[2] = system: southern armyworm (Spodoptera eridania, (Cram.)); assay: Armyworm Immersion Test; conditions: for LC50: Spodoptera eridania, 72 h, immersion (contact), 3 days, read-out: Imm LD50, Armyworm; for contact vs stomach poison, army worm (in words): immersion vs bait; for (Imm/Bait), Armyworm: ratio immersion/bait LD50
Description: as §1
The test organism used was the fourth instar larvae of the southern armyworm (Spodoptera eridania, (Cram.)) reared on Tendergreen beans in a room where temperature was held at 80° ± 5° F. and relaitve humidity 50 ± 5 percent.
Ten randomly selected larvae were thoroughly wetted in a formulated mixture of the chemical (50 ml) by pouring the insects and formulation from one beaker to another six times. Excess liquid was removed by transferring the larvae to paper towels. An equivalent amount of a water solution containing acetone and emulsifier in the same concentrations as the insecticidal mixture but without the candidate insecticide was applied in the same manner as a controls for the experiment. When dry, 5 larvae were placed in each of two 9-cm Petri dishes lined with filter paper and containing one fully expanded Tendergreen bean leaf per dish as food.
The closed dishes were held at 80°-85° F. for 3 days. Although the larvae can easily consume the whole leaf within 24 hours, no more food was added. Check larvae remained vigorous during the entire holding period. At the end of the holding period larvae which were unable to move the length of the body, even upon stimulation, were considered dead.
as §2

[3] = system: house flies (Musca domestica, L.); assay: Fly Bait Test; conditions: for LC50: Musca domestica, 24 hours, read-out: Insect LD50, Housefly; for (b) relative efficacy of derivative vs parent compound, Housefly: formula of footnote b is drawing 8
Description: as §1
Four to six day old adult house flies (Musca domestica, L.), reared according to the specifications of the Chemical Specialities Manufacturing Association (Blue Book, McNair-Dorland Co., N.Y. 1954; pages 243-244, 261) under controlled conditions of 80°±5° F. and 50±5 per cent relative humidity, were the test insects. The flies were immobilized by anesthetizing with carbon dioxide and twenty five immobilized individuals, males and females, were transferred to a cage consisting of a standard food strainer about five inches in diameter which was inverted over a wrapping-paper covered surface. The test compounds were formulated by diluting the stock suspension with a 10 per cent (by weight) sugar solution to give a suspension containing 500 parts of test compound per million parts of final formulation, by weight. Ten milliliters of the test formulation were added to a souffle cup containing a 1-inch square of an absorbent cotton pad. This bait cup was introduced and centered on the blotting paper under the food strainer prior to admitting the anesthetized flies. The caged flies were allowed to feed on the bait for 24 hours, at a temperature of 80°±5° F. and the relative humidity of 50±5 per cent.
as §2

[4] = system: bean aphid (Aphis fabae Scop.); assay: Bean Aphid Foliage Spray Test; conditions: foliar, 24 hour holding period, read-out: Insect LD50, Aphid
Description: as §1
Bean Aphid Foliage Spray Test
Adults and nymphal stages of the bean aphid (Aphis fabae Scop.) reared on potted dwarf nasturtium plants at 65°-70° F. and 50-70 per cent relative humidity, constituted the test insects. For testing purposes, the number of aphids per pot was standardized to 100-150 by trimming plants containing excess aphids.
The test compounds were formulated by diluting the stock suspension with water to give a suspension containing 500 parts of test compound per million parts of final formulation.
The potted plants (one pot per compound tested) infested with 100-150 aphids, were placed on a revolving turntable and sprayed with 100 -110 milliliters of test compound formulation by use of a DeVilbiss spray gun set at 40 psig. air pressure. This application, which lasted 25 seconds, was sufficient to wet the plants to run-off. As a control, 100-110 milliliters of a water-acetone-emulsifier solution containing no test compound were also sprayed on infested plants. After spraying, the pots were placed on their sides on a sheet of white standard mimeograph paper which had peen previously ruled to facilitate counting. Temperature and humidity in the test room during the 24 hour holding period were 65°-70° F. and 50-70 per cent, respectively. Aphids which fell onto the paper and were unable to remain standing after being uprighted were considered dead. Aphids remaining on the plants were observed closely for movement and those which were unable to move the length of the body upon stimulation by prodding were considered dead. Per cent mortality was recorded for various concentration levels.

With `CNC(=O)ON=C(C)SC` [Compound 1, O-(methylcarbamoyl) S-methyl acetothiolhydroximate] the LC50 [1] was 32 µg/mL (≈ 197 µM), the “contact vs stomach poison, house fly (in words)” value [1] was “significantly more toxic as stomach poisons than as contact poisons” and the “(Imm/Bait), Housefly” value [1] was 8. For the same molecule, the LC50 [2] was 8 µg/mL (≈ 49.3 µM), the “contact vs stomach poison, army worm (in words)” value [2] was “significantly more toxic as stomach poisons than as contact poisons” and the “(Imm/Bait), Armyworm” value [2] was 2. It also gave an LC50 [3] of 4 µg/mL (≈ 24.7 µM) and an LC50 [4] of 4 µg/mL (≈ 24.7 µM).
`CNC(=O)ON=C(C)SC(C)C` [Compound 2] was tested, and the LC50 [1] was 66 µg/mL (≈ 347 µM), the “contact vs stomach poison, house fly (in words)” value [1] was “significantly more toxic as stomach poisons than as contact poisons” and the “(Imm/Bait), Housefly” value [1] was 6. The LC50 [2] was 53 µg/mL (≈ 279 µM), the “contact vs stomach poison, army worm (in words)” value [2] was “significantly more toxic as stomach poisons than as contact poisons” and the “(Imm/Bait), Armyworm” value [2] was 3.1. It also gave an LC50 [3] of 11 µg/mL (≈ 57.8 µM) and an LC50 [4] of 25 µg/mL (≈ 131 µM).
With `CCSC(C)=NOC(=O)NC` [Compound 3] the LC50 [3] was 3 µg/mL (≈ 17 µM) and the LC50 [4] was 12 µg/mL (≈ 68.1 µM).
With `CSC(C)=NOC(=O)N(C)Sc1ccc(Cl)cc1` [Compound 4] the LC50 [1] was 24 µg/mL (≈ 78.7 µM), the “(Imm/Bait), Housefly” value [1] was 3 and the LC50 [2] was 47 µg/mL (≈ 154 µM). For the same molecule, the “(Imm/Bait), Armyworm” value [2] was 0.47, the LC50 [3] was 8 µg/mL (≈ 26.2 µM) and the LC50 [4] was 2 µg/mL (≈ 6.56 µM).
In the case of `CC(=NOC(=O)N(C)Sc1ccc(Cl)cc1)SC(C)C` [Compound 5], the LC50 [1] is reported as 25 µg/mL (≈ 75.1 µM), the “(Imm/Bait), Housefly” value [1] is reported as 0.5 and the LC50 [2] is reported as 4.5 µg/mL (≈ 13.5 µM). For the same molecule, the “(Imm/Bait), Armyworm” value [2] was 0.15, the LC50 [3] was 50 µg/mL (≈ 150 µM) and the “(b) relative efficacy of derivative vs parent compound, Housefly” value (from here on “(b) relative efficacy of derivative”) [3] was 0.4. The LC50 [4] was 3 µg/mL (≈ 9.01 µM).
For `CSC(C)=NOC(=O)N(C)Sc1ccc(C)cc1` [Compound 6], the LC50 [1] was 14 µg/mL (≈ 49.2 µM), the “(Imm/Bait), Housefly” value [1] was 7 and the LC50 [2] was 10 µg/mL (≈ 35.2 µM). For the same molecule, the “(Imm/Bait), Armyworm” value [2] was 1.7, the LC50 [3] was 2 µg/mL (≈ 7.03 µM) and the LC50 [4] was 5 µg/mL (≈ 17.6 µM).
`CC(=NOC(=O)N(C)Sc1ccc(C)cc1)SC(C)C` [Compound 7] was tested, and the LC50 [1] was 25 µg/mL (≈ 80 µM), the “(Imm/Bait), Housefly” value [1] was 0.5 and the LC50 [2] was 14.4 µg/mL (≈ 46.1 µM). The “(Imm/Bait), Armyworm” value [2] was 1.2, the LC50 [3] was 50 µg/mL (≈ 160 µM) and the “(b) relative efficacy of derivative” value [3] was 0.38. For the same molecule, the LC50 [4] was 5 µg/mL (≈ 16 µM).
For `CSC(C)=NOC(=O)N(C)Sc1ccc(C(C)(C)C)cc1` [Compound 8, O-[N-Methyl-N-[4-(t-butylphenyl)sulfenyl]carbamoyl] S-Methyl Acetothiolhydroximate], the LC50 [1] was 14 µg/mL (≈ 42.9 µM), the “contact vs stomach poison, house fly (in words)” value [1] was “outstanding contact poison” and the “(Imm/Bait), Housefly” value [1] was 0.8. For the same molecule, the LC50 [2] was 4 µg/mL (≈ 12.3 µM), the “contact vs stomach poison, army worm (in words)” value [2] was “outstanding contact poison” and the “(Imm/Bait), Armyworm” value [2] was 1. For the same molecule, the LC50 [3] was 17 µg/mL (≈ 52.1 µM), the “(b) relative efficacy of derivative” value [3] was 0.4 and the LC50 [4] was 2.5 µg/mL (≈ 7.66 µM).
For `CC(=NOC(=O)N(C)Sc1ccc(C(C)(C)C)cc1)SC(C)C` [Compound 9, O-[N-Methyl-N-[4-(t-Butylphenyl)sulfenyl]carbamoyl] S-Isopropyl Thiolacetohydroximate], the LC50 [1] was 10 µg/mL (≈ 28.2 µM), the “(Imm/Bait), Housefly” value [1] was 0.2 and the LC50 [2] was 5 µg/mL (≈ 14.1 µM). For the same molecule, the “(Imm/Bait), Armyworm” value [2] was 0.25, the LC50 [3] was 50 µg/mL (≈ 141 µM) and the “(b) relative efficacy of derivative” value [3] was 0.43. It also gave an LC50 [4] of 9 µg/mL (≈ 25.4 µM).
